Source: PMC10138577, “Prenylated Flavonoids with Selective Toxicity against Human Cancers” (International Journal of Molecular Sciences, 2023)

Key:
Type in all cases: cell-based
[1] = test system: LoVo human colorectal adenocarcinoma cells; assay: In vitro antiproliferative assay (SRB), LoVo; settings: for IC50: Homo sapiens, LoVo, 72 h exposure, SRB, mean ± SD; for Calculated selectivity index SIB: IC50 BALB/3T3/IC50 LoVo; for Calculated selectivity index SIA: IC50 HLMEC/IC50 LoVo
From the text: (§1) The following established in vitro cell lines were applied: human breast adenocarcinoma (MCF-7 and SK-BR-3), human breast ductal carcinoma (T47D), human prostate adenocarcinoma (PC-3), human prostate carcinoma (Du145), human colorectal adenocarcinoma (HT-29 and LoVo), doxorubicin-resistant human colorectal adenocarcinoma (LoVo/Dx), human myelomonocytic leukemia (MV-4-11), human lung adenocarcinoma (A549), normal murine embryonic fibroblasts (BALB/3T3) and human lung microvascular endothelial (HLMEC). All the cell lines were obtained from the American Type Culture Collection (Rockville, MD, USA) except for LoVo and LoVo/DX, which were received from the Technical University of Gdańsk, Poland, courtesy of Prof. E. Borowski. All the cell lines were maintained in the Institute of Immunology and Experimental Therapy, Wroclaw, Poland. The cells were cultured in the following media: DMEM medium (BALB/3T3), Eagle medium (MCF-7, SK-BR-3, Du145), RPMI medium (HLMEC, MV-4-11) or RPMI 1640 + Opti-MEM (1:1) medium (A549, T47D, LoVo, LoVo/Dx, PC-3, HT-29). The DMEM medium was supplemented with 2 mM L-glutamine and 10% fetal bovine serum. The Eagle medium was supplemented with 4 mM L-glutamine, 10% fetal bovine serum, 1 mM sodium pyruvate for Du145 cells or 2 mM L-glutamine, 1% amino acids and 0.8 mg L^−1 of insulin for MCF-7 and SK-BR-3. The RPMI medium was supplemented with 2 mM L-glutamine, 1 mM sodium pyruvate and 10% fetal bovine serum. The RPMI 1640 + Opti-MEM (1:1) medium was supplemented with 2 mM L-glutamine, 5% fetal bovine serum (PC-3, A549) and 0.8 mg L^−1 insulin (T47D) or 1 mM sodium pyruvate (HT-29, LoVo, LoVoDx) and 0.1 ug/mL doxorubicin (LoVo/Dx). The media contained antibiotics: 100 µg mL^−1 streptomycin and 100 U mL^−1 penicillin. All the cell lines were incubated at 37 °C in a humid atmosphere saturated with 5% CO2.
(§2) The details of this technique were described by Skehan et al.. After 72 h of incubation with the tested compounds, the cells were fixed in situ by gently adding cold 50% trichloroacetic acid—TCA (50 µL per well). The plates were incubated at 4 °C for 1 h and then washed five times with tap water and air-dried. Next, the cellular material fixed with TCA was stained by adding 50 µL of 0.4% sulforhodamine B dissolved in 1% acetic acid to each well and incubating the wells for 30 min at room temperature. The unbound dye was removed by washing the plates five times with 1% acetic acid, whereas the stain bound to the cells was extracted with 150 µL of 10 mM unbuffered Tris base for determination of the optical density at a 540 nm wavelength in a computer-interfaced, 96-well microtiter plate reader–Multiskan FC photometer (Thermo Scientific, Waltham, MA, USA). The background optical density was measured in the wells filled with culture medium, without the cells.
(§3) Twenty-four hours before incubation with the tested compounds, the cells were seeded in 96-well plates (Sarstedt, Nümbrecht, Germany) at a density of 10^4 cells per well (10^3 cells per well for HLMEC) in 100 µL of culture medium. The analysis of the antiproliferative activity of the compounds was performed using sulforhothamine B (SRB) (for all the adherent cells) or 3-(4,5-dimethylthiazol-2-yl)-2,5-diphenyl tetrazolium bromide (MTT) (for the leukemia cells—MV-4-11). The details of this technique have been previously described by Skehan et al. and Antoszak et al.. An assay was performed after 72 h of exposure at varying concentrations (from 0.1 to 100 µg mL^−1) of xanthohumol (1), aurone (2) and the reference drug cisplatin. Each compound at each concentration was tested in a single experiment, which was repeated at least 3 times. […] The results were calculated as the IC50 (μM) (half maximal inhibitory concentration), i.e., the concentration of the tested agent that inhibits the proliferation of the cancer cell population by half. […]

[2] = test system: LoVo/Dx doxorubicin-resistant human colorectal adenocarcinoma cells; assay: In vitro antiproliferative assay (SRB), LoVo/Dx; settings: for IC50: Homo sapiens, LoVo/Dx, 72 h exposure, SRB, mean ± SD; for Calculated selectivity index SIB: IC50 BALB/3T3/IC50 LoVo/Dx; for Calculated selectivity index SIA: IC50 HLMEC/IC50 LoVo/Dx
From the text: as §1, §2, §3

[3] = test system: PC-3 human prostate adenocarcinoma cells; assay: In vitro antiproliferative assay (SRB), PC-3; settings: for IC50: Homo sapiens, PC-3, 72 h exposure, SRB, mean ± SD; for Calculated selectivity index SIB: IC50 BALB/3T3/IC50 PC-3; for Calculated selectivity index SIA: IC50 HLMEC/IC50 PC-3
From the text: as §1, §2, §3

[4] = test system: MV-4-11 human myelomonocytic leukemia cells; assay: In vitro antiproliferative assay (MTT), MV-4-11; settings: for IC50: Homo sapiens, MV4-11, MV-4-11, 72 h exposure, MTT, mean ± SD; for Calculated selectivity index SIB: IC50 BALB/3T3/IC50 MV-4-11; for Calculated selectivity index SIA: IC50 HLMEC/IC50 MV-4-11
From the text: as §1
The details of this technique were described by Antoszczak et al.. The proliferation inhibition of human myelomonocytic leukemia (MV-4-11) by the tested compounds was measured using the MTT assay. Thus, 20 µL of 3-(4,5-dimethylthiazol-2-yl)-2,5-diphenyl tetrazolium bromide solution was added to each well. Then, the plates were incubated for 4 h in a cell incubator to allow the cells to metabolize the yellow MTT to blue formazan. Next, 80 µL of lysing mixture (consisting of 67.5 g sodium dodecyl sulfate, 225 mL dimethylformamide and 275 mL distilled water) was added to each well. The plates were incubated for 24 h for the formazan crystals to be released from the cells and dissolved, and then the absorbance of each well was read on a 96-well microtiter plate reader (Multiskan FC photometer (Thermo Scientific)) at a 570 nm wavelength.
Twenty-four hours before incubation with the tested compounds, the cells were seeded in 96-well plates (Sarstedt, Nümbrecht, Germany) at a density of 10^4 cells per well (10^3 cells per well for HLMEC) in 100 µL of culture medium. The analysis of the antiproliferative activity of the compounds was performed using sulforhothamine B (SRB) (for all the adherent cells) or 3-(4,5-dimethylthiazol-2-yl)-2,5-diphenyl tetrazolium bromide (MTT) (for the leukemia cells—MV-4-11). The details of this technique have been previously described by Skehan et al. and Antoszak et al.. An assay was performed after 72 h of exposure at varying concentrations (from 0.1 to 100 µg mL^−1) of xanthohumol (1), aurone (2) and the reference drug cisplatin. Each compound at each concentration was tested in a single experiment, which was repeated at least 3 times. […] The results were calculated as the IC50 (μM) (half maximal inhibitory concentration), i.e., the concentration of the tested agent that inhibits the proliferation of the cancer cell population by half. The IC50 values and the mean values ± SD calculated for each experiment separately using GraphPad Prism software (GraphPad Software 9.1.0, San Diego, CA, USA) are presented in Table S1 in the Supplementary Materials.

[5] = test system: human lung microvascular endothelial (HLMEC) cells; assay: In vitro cytotoxicity against normal cells (SRB), HLMEC; settings: for IC50: Homo sapiens, HLMEC normal cell line, 72 h exposure, SRB, mean ± SD, read-out: Antiproliferative activity IC50
From the text: as §1
The details of this technique were described by Skehan et al.. […] The unbound dye was removed by washing the plates five times with 1% acetic acid, whereas the stain bound to the cells was extracted with 150 µL of 10 mM unbuffered Tris base for determination of the optical density at a 540 nm wavelength in a computer-interfaced, 96-well microtiter plate reader–Multiskan FC photometer (Thermo Scientific, Waltham, MA, USA). The background optical density was measured in the wells filled with culture medium, without the cells.
Twenty-four hours before incubation with the tested compounds, the cells were seeded in 96-well plates (Sarstedt, Nümbrecht, Germany) at a density of 10^4 cells per well (10^3 cells per well for HLMEC) in 100 µL of culture medium. […] The results were calculated as the IC50 (μM) (half maximal inhibitory concentration), i.e., the concentration of the tested agent that inhibits the proliferation of the cancer cell population by half. […]

| IC50 [1] | IC50 [2] | IC50 [3] | IC50 [4] | Compound | Calculated selectivity index SIB [1] | Calculated selectivity index SIA [1] | Calculated selectivity index SIB [2] | Calculated selectivity index SIA [2] | Calculated selectivity index SIB [3] | Calculated selectivity index SIA [3] | Calculated selectivity index SIB [4] | Calculated selectivity index SIA [4] | IC50 [5] | Calculated selectivity index SIB ([2]; listed as aurone (2)) | reduction of cytotoxic effect against normal cells relative to xanthohumol (1) ([5]; HLMEC, p < 0.05) |
| --- | --- | --- | --- | --- | --- | --- | --- | --- | --- | --- | --- | --- | --- | --- | --- |
| 5.53 ± 1.64 µM | 7.28 ± 1.22 µM | 9.15 ± 0.88 µM | 8.07 ± 0.52 µM | COc1cc(O)c(CC=C(C)C)c(O)c1C(=O)/C=C/c1ccc(O)cc1 [compound 1, 3′-[3″,3″-dimethylallyl]-2′,4′,4-trihydroxy-6′-methoxychalcone] | 3.55 | 6.56 | 2.70 | 4.99 | 2.14 | 3.97 | 2.43 | 4.50 | 36.3 ± 6.7 µM | – | – |
| 8.85 ± 4.85 µM | 7.83 ± 2.82 µM | 19.1 ± 9.27 µM | 7.45 ± 0.87 µM | COc1cc(O)c(CC=C(C)C)c2c1C(=O)/C(=C/c1ccc(O)cc1)O2 [compound 2, (Z)-6,4′-dihydroxy-4-methoxy-7-prenylaurone] | 5.02 | 5.97 | 5.68 | 6.75 | 2.33 | 2.77 | 5.97 | 7.09 | 52.8 ± 8.03 µM | 5.97 | 1.5 fold |
